The assay deals with T1, USP25 (USP25-His6, Boston Biochem E-546) (Homo sapiens, UniProt Q9UHP3).
T1 construct: His6; purchased Boston Biochem E-546
T1 sequence (Q9UHP3 1-1055): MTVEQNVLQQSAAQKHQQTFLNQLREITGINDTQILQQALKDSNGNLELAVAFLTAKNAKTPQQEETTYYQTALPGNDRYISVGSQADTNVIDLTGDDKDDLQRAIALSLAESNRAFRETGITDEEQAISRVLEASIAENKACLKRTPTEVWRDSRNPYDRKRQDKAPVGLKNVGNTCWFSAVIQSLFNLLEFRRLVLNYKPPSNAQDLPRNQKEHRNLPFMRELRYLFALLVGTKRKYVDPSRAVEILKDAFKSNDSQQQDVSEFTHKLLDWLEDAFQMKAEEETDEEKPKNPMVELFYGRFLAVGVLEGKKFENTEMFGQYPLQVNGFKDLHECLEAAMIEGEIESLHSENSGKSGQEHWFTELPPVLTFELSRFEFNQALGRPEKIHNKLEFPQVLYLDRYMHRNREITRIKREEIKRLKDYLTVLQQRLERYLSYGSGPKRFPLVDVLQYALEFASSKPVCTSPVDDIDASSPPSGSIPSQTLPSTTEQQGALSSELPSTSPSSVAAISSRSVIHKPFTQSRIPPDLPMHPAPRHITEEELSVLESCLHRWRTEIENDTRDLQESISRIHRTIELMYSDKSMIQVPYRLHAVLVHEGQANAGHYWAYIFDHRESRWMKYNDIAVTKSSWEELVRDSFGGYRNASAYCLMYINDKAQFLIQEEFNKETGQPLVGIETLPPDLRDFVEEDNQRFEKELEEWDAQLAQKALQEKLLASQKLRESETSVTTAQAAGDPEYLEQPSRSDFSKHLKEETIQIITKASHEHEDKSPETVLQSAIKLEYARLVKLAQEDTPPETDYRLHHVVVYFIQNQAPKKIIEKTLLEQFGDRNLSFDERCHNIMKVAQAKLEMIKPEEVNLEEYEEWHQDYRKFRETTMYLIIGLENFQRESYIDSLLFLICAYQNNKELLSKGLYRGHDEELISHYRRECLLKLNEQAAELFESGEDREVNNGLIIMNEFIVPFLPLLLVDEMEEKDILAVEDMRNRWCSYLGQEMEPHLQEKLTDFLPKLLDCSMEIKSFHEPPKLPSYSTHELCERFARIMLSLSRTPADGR
In words: Ubiquitin-Rhodamine 110 Assay for USP25 Activity, Example A-2. In kind it is biochemical. The note with it: Ub-Rh110 assay, Example A-2; read-out: USP25 A-2 IC50 range. How it is done: The assay was performed in a final volume of 9 μL in assay buffer containing 20 mM Tris-HCl (pH 8.0, (1M Tris-HCl, pH 8.0 solution; Corning 46-031-CM)), 3 mM BME (2-Mercaptoethanol; Sigma 63689-25ML-F), 0.03% BGG (0.22 μM filtered, Sigma, G7516-25G), and 0.01% Triton X-100 (Sigma, T9284-10L). Nanoliter quantities of 10-point, 3-fold serial dilution in DMSO was pre-dispensed into 1536 assay plates (Corning, #3724BC) for a final test concentration of 25 μM to 1.3 nM, top to lowest dose, respectively. Enzyme USP25, construct USP25-His6, (Boston Biochem E-546). Concentration and incubation times were optimized for the maximal signal-to-background while maintaining initial velocity conditions at a fixed substrate concentration. The final concentration of the enzyme in the assay was 75 pM. Final substrate (Ub-Rh110; Ubiquitin-Rhodamine 110, R&D Systems #U-555) concentration was 25 nM with [Ub-Rh110]<<Km. 3 μL of 2× enzyme was added to assay plates (pre-stamped with compound) preincubated with […] for 30 minutes and then 3 μL of 2×Ub-Rh110 was added to assay plates. Plates were incubated for 45 minutes at room temperature before addition of 3 μL of stop solution (final concentration of 10 mM citric acid (Sigma, 251275-500G)). Fluorescence was read on the Envision (Excitation at 485 nm and Emission at 535 nm; Perkin Elmer) or on the PheraSTAR (Excitation at 485 nm and Emission at 535 nm; BMG Labtech).
IC50 values were determined by curve fitting of the standard 4 parameter logistic fitting algorithm included in the Activity Base software package: IDBS XE Designer Model 205. Data is fitted using the Levenburg Marquardt algorithm.

A value given as a limit tells only on which side of the number the result lay.

The term IC50 denotes the midpoint of a concentration-inhibition curve.

Turning to `Cc1ccc2c(N)c(C(=O)N[C@H]3COc4cc(N5CCNCC5)ccc4C3)sc2n1` (single isomer, unassigned) [Example 1-1], the IC50 was 200 to 2000 nM.
As for `Cc1ccc2c(N)c(C(=O)N[C@@H]3COc4cc(N5CCNCC5)ccc4C3)sc2n1` (single isomer, unassigned) [Example 1-2], the IC50 was above 2000 nM.
Then `Cc1ccc2c(N)c(C(=O)N[C@H]3COc4cc(N5CC6CCC(C5)N6)ccc4C3)sc2n1` (single isomer, unassigned) [Example 1-3], with 1 to 50 nM; and `Cc1ccc2c(N)c(C(=O)N[C@@H]3COc4cc(N5CC6CCC(C5)N6)ccc4C3)sc2n1` (single isomer, unassigned) [Example 1-4], with above 2000 nM.
Then `Cc1ccc2c(N)c(C(=O)N[C@H]3COc4cc(N5CC6CCCC(C5)N6)ccc4C3)sc2n1` (single isomer, unassigned) [Example 1-5], with 1 to 50 nM; and `Cc1ccc2c(N)c(C(=O)N[C@@H]3COc4cc(N5CC6CCCC(C5)N6)ccc4C3)sc2n1` (single isomer, unassigned) [Example 1-6], with above 2000 nM; and `Cc1ccc2c(N)c(C(=O)N[C@H]3COc4cc(N5CCN[C@H](C)[C@@H]5C)ccc4C3)sc2n1` (single isomer, unassigned) [Example 1-9], with 200 to 2000 nM.
Then `Cc1ccc2c(N)c(C(=O)N[C@@H]3COc4cc(N5CCN[C@H](C)[C@@H]5C)ccc4C3)sc2n1` (single isomer, unassigned) [Example 1-10], with 200 to 2000 nM; and `Cc1ccc2c(N)c(C(=O)N[C@H]3COc4cc(N5CCN[C@H](C)[C@H]5C)ccc4C3)sc2n1` (single isomer, unassigned) [Example 1-11], with 50 to 200 nM.
As to `Cc1ccc2c(N)c(C(=O)N[C@@H]3COc4cc(N5CCN[C@H](C)[C@H]5C)ccc4C3)sc2n1` (single isomer, unassigned) [Example 1-12], the IC50 was 1 to 50 nM.
With `Cc1ccc2c(N)c(C(=O)N[C@H]3COc4cc(N5CCN[C@@H](C)[C@@H]5C)ccc4C3)sc2n1` (single isomer, unassigned) [Example 1-13], the IC50 was 200 to 2000 nM.
Then `Cc1ccc2c(N)c(C(=O)N[C@@H]3COc4cc(N5CCN[C@@H](C)[C@@H]5C)ccc4C3)sc2n1` (single isomer, unassigned) [Example 1-14], with 200 to 2000 nM.
Then `Cc1nc2sc(C(=O)N[C@H]3COc4cc(N5CCNCC5)ccc4C3)c(N)c2cc1F` (single isomer, unassigned) [Example 1-15], with 50 to 200 nM.
Under `Cc1nc2sc(C(=O)N[C@@H]3COc4cc(N5CCNCC5)ccc4C3)c(N)c2cc1F` (single isomer, unassigned) [Example 1-16] stands above 2000 nM; under `Nc1c(C(=O)N[C@H]2COc3cc(N4CC5CCC(C4)N5)ccc3C2)sc2ncc(F)cc12` (single isomer, unassigned) [Example 1-17], 200 to 2000 nM.
For `Nc1c(C(=O)N[C@@H]2COc3cc(N4CC5CCC(C4)N5)ccc3C2)sc2ncc(F)cc12` (single isomer, unassigned) [Example 1-18], the IC50 is above 2000 nM.
Then `Cc1cnc2c(N)c(C(=O)N[C@H]3COc4cc(N5CCNCC5)ccc4C3)sc2n1` (single isomer, unassigned) [Example 1-21], with 200 to 2000 nM; and `Cc1cnc2c(N)c(C(=O)N[C@@H]3COc4cc(N5CCNCC5)ccc4C3)sc2n1` (single isomer, unassigned) [Example 1-22], with above 2000 nM; and `CCn1ccc2cc(C(=O)N[C@@H]3COc4cc(N5CC6CCC(C5)N6)ccc4C3)cnc21` (single isomer, unassigned) [Example 1-27], with above 2000 nM.
Then `CCn1ccc2cc(C(=O)N[C@H]3COc4cc(N5CC6CCC(C5)N6)ccc4C3)cnc21` (single isomer, unassigned) [Example 1-28], with 50 to 200 nM.
Under `Cc1ccc2c(N)c(C(=O)N[C@@H]3COc4cc(N5CC6CCC(C5)N6)cc(F)c4C3)sc2n1` (single isomer, unassigned) [Example 1-30] stands above 2000 nM.
For the compound `Cc1ccc2c(N)c(C(=O)N[C@H]3COc4cc(N5CCNCC5)c(OC(F)(F)F)cc4C3)sc2n1` (single isomer, unassigned) [Example 1-31], the IC50 was above 2000 nM.
Then `Cc1ccc2c(N)c(C(=O)N[C@@H]3COc4cc(N5CCNCC5)c(OC(F)(F)F)cc4C3)sc2n1` (single isomer, unassigned) [Example 1-32], with 200 to 2000 nM; and `Cc1nc2sc(C(=O)N[C@H]3COc4cc(N5CCNCC5)cc(F)c4C3)c(N)c2s1` (single isomer, unassigned) [Example 1-37], with above 2000 nM.
For `Cc1nc2sc(C(=O)N[C@@H]3COc4cc(N5CCNCC5)cc(F)c4C3)c(N)c2s1` (single isomer, unassigned) [Example 1-38], the IC50 fell in the range of 200 to 2000 nM.
In the case of `Cc1nc2sc(C(=O)N[C@H]3COc4cc(N5CC6CCC(C5)N6)cc(F)c4C3)c(N)c2s1` (single isomer, unassigned) [Example 1-39], the half-inhibitory concentration (IC50) is 200 to 2000 nM.
Turning to `Cc1nc2sc(C(=O)N[C@@H]3COc4cc(N5CC6CCC(C5)N6)cc(F)c4C3)c(N)c2s1` (single isomer, unassigned) [Example 1-40], the IC50 is above 2000 nM.
Under `Cc1ccc2c(N)c(C(=O)N[C@@H]3COc4cc(N5CC6CC(C5)N6)cc(F)c4C3)sc2n1` (single isomer, unassigned) [Example 1-41] stands 50 to 200 nM; under `Cc1ccc2c(N)c(C(=O)N[C@H]3COc4cc(N5CC6CC(C5)N6)cc(F)c4C3)sc2n1` (single isomer, unassigned) [Example 1-42], above 2000 nM; under `Cc1cnc2c(N)c(C(=O)N[C@H]3CCc4cc(N5CCNCC5)c(C)cc4C3)sc2n1` (single isomer, unassigned) [Example 2-34], above 2000 nM.
Then `Cc1cnc2c(N)c(C(=O)N[C@@H]3CCc4cc(N5CCNCC5)c(C)cc4C3)sc2n1` (single isomer, unassigned) [Example 2-35], with above 2000 nM; and `Cc1cnc2c(N)c(C(=O)N[C@H]3CCc4c(ccc(N5CCNCC5)c4C)C3)sc2n1` (single isomer, unassigned) [Example 2-36], with above 2000 nM; and `Cc1cnc2c(N)c(C(=O)N[C@@H]3CCc4c(ccc(N5CCNCC5)c4C)C3)sc2n1` (single isomer, unassigned) [Example 2-37], with 200 to 2000 nM.
Under `CO[C@H]1CN(c2ccc3c(c2)OC[C@H](NC(=O)c2sc4nc(C)ccc4c2N)C3)C[C@@H]1N` (single isomer, unassigned) [Example 3-1] stands 200 to 2000 nM; under `CO[C@@H]1CN(c2ccc3c(c2)OC[C@H](NC(=O)c2sc4nc(C)ccc4c2N)C3)C[C@H]1N` (single isomer, unassigned) [Example 3-2], 200 to 2000 nM; under `Cc1ccc2c(N)c(C(=O)N[C@H]3COc4cc(N5CCC[C@@](N)(C(F)(F)F)C5)ccc4C3)sc2n1` (single isomer, unassigned) [Example 3-3], 50 to 200 nM.
Regarding `Cc1ccc2c(N)c(C(=O)N[C@H]3COc4cc(N5CCC[C@](N)(C(F)(F)F)C5)ccc4C3)sc2n1` (single isomer, unassigned) [Example 3-4], the IC50 lay in the range of 200 to 2000 nM.

Values taken from patent US11524966B1 (Valo Early Discovery, Inc., priority 2017, dated 2022).
